Literature values as cited in patent publication US12404360B2, “Method of preparing graft copolymer” (LG CHEM, LTD., priority 2019, dated 2025).

How the values were obtained:
[1] = not given; remark: listed apart in the source

Question: What does the source list for `CC(C#N)(CCC(=O)O)/N=N/C(C)(C#N)CCC(=O)O` (stereo not drawn) [VA-501]?
Answer: Solubility in water at 20° C.: 0.1 g/100 g; 10-hour half-life decomposition temperature in water [1]: 69 °C

Question: For `CC(C)(/N=N/C(C)(C)C1=NCCN1)C1=NCCN1` [VA-061], which “Solubility in water at 20° C.” value is on record?
Answer: The value was 0.5 g/100 g.

Question: And the “10-hour half-life decomposition temperature in methanol” value ([1]; in methanol)?
Answer: Its value is 61 °C.

Question: For `CC(C)(/N=N/C(C)(C)C1=NCCN1)C1=NCCN1` [VA-044], which “Solubility in water at 20° C.” value is on record?
Answer: Its value is 35.2 g/100 g.

Question: What about the “10-hour half-life decomposition temperature in water” value [1] of the same compound?
Answer: Its value is 44 °C.

Question: What does the source list for `CC(C)(/N=N/C(C)(C)C(=O)NCCO)C(=O)NCCO` [VA-086]?
Answer: Solubility in water at 20° C.: 2.4 g/100 g; 10-hour half-life decomposition temperature in water [1]: 86 °C

Question: Which results are given for `CC(C)CC(C)(C#N)/N=N/C(C)(C#N)CC(C)C` (stereo not drawn) [Example V-65]?
Answer: Solubility in water at 20° C.: < 0.1 g/100 g; 10-hour half-life decomposition temperature in toluene [1]: 51 °C

Question: Which “Solubility in water at 20° C.” value does the source give for `CC(C)(C#N)/N=N/C(C)(C)C#N` [AIBN] here?
Answer: The value was < 0.1 g/100 g.

Question: And the “10-hour half-life decomposition temperature in toluene” value [1]?
Answer: The value was 65 °C.

Question: Which results are given for `CC(C)(/N=N/C(C)(C)C(=N)NCCC(=O)O)C(=N)NCCC(=O)O` [VA-057]?
Answer: Solubility in water at 20° C.: 14 g/100 g; 10-hour half-life decomposition temperature in water [1]: 57 °C

Question: With `CC(C)(/N=N/C(C)(C)C(=N)N)C(=N)N` [VA-050] as the compound, how does the “10-hour half-life decomposition temperature in water” value [1] read?
Answer: The value was 56 °C.
